Data on 8 compounds can be found in ChEMBL document CHEMBL3085718, “Discovery and optimization of orally active cyclohexane-based prolylcarboxypeptidase (PrCP) inhibitors” (Bioorg Med Chem Lett, 2013).

Series [1] can be described thus: in vivo. The following applies: mouse.
Series [2] is described as follows: in vivo. Particulars: mouse, po.
Series [3] can be described thus: in vivo. Particulars: C57, mouse, plasma, po, 30 mg/kg.
A short description of series [4]: Plasma concentration in C57 mouse at 10 mg/kg, po after 20 hrs by LC/MS analysis. In kind it is ADME, organism-based. Set-up: dose 10 mg/kg, route oral.

In general, half-life refers to the time in which the quantity being followed falls by half. A higher half-life goes with slow loss. For orientation: bioavailability means the share of a dose that reaches the circulation, judged against a reference dose that is usually intravenous. Low values mean little systemic uptake, high ones much systemic uptake. Compound `O=C(NC(c1ccncc1)c1ccc(F)cc1)[C@@H]1CC[C@@H](N2CCOCC2)C[C@H]1c1ccc(Br)cc1` (stereo not given in full) had a half-life in “in vivo [1]” of 2 h. This compound also showed a bioavailability in “in vivo [2]” of 6.9%.

For `O=C(NC(c1ccc(F)cc1)c1ccc(F)cc1)[C@@H]1CC[C@@H](N2CCOCC2)C[C@H]1c1ccc(Br)cc1`, the half-life in “in vivo [1]” was 7.6 h. In “in vivo [3]”, this compound came in with a concentration at 20 h of 1020 nM. Further, in the series “in vivo [2]”, the bioavailability was found to be 77%.

Regarding `O=C(NC(c1ccncc1)c1ccc(Cl)cc1)[C@@H]1CC[C@@H](N2CCOCC2)C[C@H]1c1ccc(Br)cc1` (stereo not given in full), in the series “in vivo [1]”, the half-life is 1.4 h. The same compound yielded a bioavailability in “in vivo [2]” of 8.9%.

As for `O=C(NC(c1ccc(Cl)cc1)c1ccncc1Cl)[C@@H]1CC[C@@H](N2CCOCC2)C[C@H]1c1ccc(Br)cc1` (stereo not given in full), in “in vivo [1]”, the half-life was 1.5 h. The bioavailability in the series “in vivo [2]” is 17%.

For `O=C(NC(c1ccc(Cl)cc1)c1ccnc(F)c1)[C@@H]1CC[C@@H](N2CCOCC2)C[C@H]1c1ccc(Br)cc1` (stereo not given in full), the concentration at 20 h in series [4] came out at 163 nM; in “in vivo [3]”, 390 nM. This compound also showed a half-life in “in vivo [1]” of 2.9 h. The bioavailability in the series “in vivo [2]” was determined as 90%.

With `O=C(NC(c1ccc(Cl)cc1)c1ccc(F)cn1)[C@@H]1CC[C@@H](N2CCOCC2)C[C@H]1c1ccc(Br)cc1` (stereo not given in full), the half-life in the series “in vivo [1]” is 4.9 h. The same compound yielded a concentration at 20 h in “in vivo [3]” of 1840 nM. In the series “in vivo [2]”, this compound displayed a bioavailability of 50%.

For `O=C(NC(c1ccc(Cl)cc1)c1cnccn1)[C@@H]1CC[C@@H](N2CCOCC2)C[C@H]1c1ccc(Br)cc1` (stereo not given in full), in “in vivo [1]”, the half-life is 1.2 h. The compound also registered a bioavailability in the series “in vivo [2]” of 5.2%.

On to `O=C(NC(c1ccccc1)c1ccccc1)[C@@H]1CC[C@@H](N2CCOCC2)C[C@H]1c1ccc(Br)cc1`, for which the half-life in the series “in vivo [1]” was 3.1 h. This compound also displayed a bioavailability in the series “in vivo [2]” of 36%.
